According to the supplement of paper PMC4976141:
± gives the uncertainty stated by the source.

Experiments:
EVSA-T [1] = experiment: % viability under drug (72 h drug + 72 h recovery), miRNA mimic relative to NTC in DMSO; higher = more surviving cells; settings: drug used in drug arm: GDC-0980 2.5 uM; treatment: drug
Procedure: (§1)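 26 miRNA mimics were transfected into 8 cancer cell lines in triplicate. 48 h post-transfection, cells were treated 72 h with DMSO or a line-specific drug, then recovered 72 h drug-free. Drugs: COLO-205 AZ628 1 uM, MKN-45 crizotinib 1 uM, NCI-H596 paclitaxel 6 uM, EVSA-T GDC-0980 2.5 uM, M14 AZ628 1 uM, HCC-1954 GDC-0980 2.5 uM, NCI-H441 carboplatin 2.5 uM, SKBr3 lapatinib 1 uM. Surviving cells are expressed as % of NTC-transfected cells in DMSO (the NTC drug arm itself is about 30-50%), mean +- SEM.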

M14 [2] = experiment: as above; settings: drug used in drug arm: AZ628 1 uM; treatment: drug
Procedure: as §1

HCC-1954 [3] = experiment: as above; settings: drug used in drug arm: GDC-0980 2.5 uM; treatment: drug
Procedure: as §1

NCI-H596 [4] = experiment: as above; settings: drug used in drug arm: paclitaxel 6 uM; treatment: drug
Procedure: as §1

COLO-205 [5] = experiment: as above; settings: drug used in drug arm: AZ628 1 uM; treatment: drug
Procedure: as §1

SK-BR-3 [6] = experiment: as above; settings: drug used in drug arm: lapatinib 1 uM; treatment: drug
Procedure: as §1

MKN-45 [7] = experiment: as above; settings: drug used in drug arm: crizotinib 1 uM; treatment: drug
Procedure: as §1

NCI-H441 [8] = experiment: as above; settings: drug used in drug arm: carboplatin 2.5 uM; treatment: drug
Procedure: as §1

EVSA-T [9] = experiment: % viability in DMSO, miRNA mimic relative to NTC in DMSO; higher = less cytotoxic; settings: drug used in drug arm: GDC-0980 2.5 uM; treatment: DMSO
Procedure: as §1

M14 [10] = experiment: as above; settings: drug used in drug arm: AZ628 1 uM; treatment: DMSO
Procedure: as §1

HCC-1954 [11] = experiment: as above; settings: drug used in drug arm: GDC-0980 2.5 uM; treatment: DMSO
Procedure: as §1

NCI-H596 [12] = experiment: as above; settings: drug used in drug arm: paclitaxel 6 uM; treatment: DMSO
Procedure: as §1

COLO-205 [13] = experiment: as above; settings: drug used in drug arm: AZ628 1 uM; treatment: DMSO
Procedure: as §1

SK-BR-3 [14] = experiment: as above; settings: drug used in drug arm: lapatinib 1 uM; treatment: DMSO
Procedure: as §1

MKN-45 [15] = experiment: as above; settings: drug used in drug arm: crizotinib 1 uM; treatment: DMSO
Procedure: as §1

NCI-H441 [16] = experiment: as above; settings: drug used in drug arm: carboplatin 2.5 uM; treatment: DMSO
Procedure: as §1

PC9 = experiment: cell count fold change with erlotinib, miRNA mimic vs non-targeting control (log2 ratio); higher = more drug-tolerant survivors than NTC; settings: erlotinib 1 µM; 72 h drug + 72 h drug-free recovery; perturbation: miRNA mimic

Sequence	cell count fold change with erlotinib (PC9)	other results
AAAAGUAAUUGCGGAUUUUGCC	0.467	% viability under drug (EVSA-T [1]): 0.608 ± 0.1%; % viability under drug (M14 [2]): 18 ± 0.42%; % viability under drug (HCC-1954 [3]): 3.99 ± 0.13%; % viability under drug (NCI-H596 [4]): 1.3 ± 0.04%; % viability under drug (COLO-205 [5]): 42.6 ± 1%; % viability under drug (SK-BR-3 [6]): 45.73 ± 0.37%; % viability under drug (MKN-45 [7]): 4.35 ± 0.71%; % viability under drug (NCI-H441 [8]): 29.7 ± 2.4%; % viability in DMSO (EVSA-T [9]): 85.7 ± 0.94%; % viability in DMSO (M14 [10]): 119 ± 24%; % viability in DMSO (HCC-1954 [11]): 117 ± 9.9%; % viability in DMSO (NCI-H596 [12]): 95.4 ± 3.6%; % viability in DMSO (COLO-205 [13]): 101 ± 4.2%; % viability in DMSO (SK-BR-3 [14]): 73.43 ± 0.24%; % viability in DMSO (MKN-45 [15]): 136 ± 19%; % viability in DMSO (NCI-H441 [16]): 182 ± 14%
AAAAGUAAUUGUGGUUUUUGCC	0.561	% viability under drug (EVSA-T [1]): 0.3585 ± 0.0025%; % viability under drug (M14 [2]): 21.9 ± 1.3%; % viability under drug (HCC-1954 [3]): 2.67 ± 0.17%; % viability under drug (NCI-H596 [4]): 0.738 ± 0.0075%; % viability under drug (COLO-205 [5]): 46.4 ± 1.6%; % viability under drug (SK-BR-3 [6]): 39.2 ± 11%; % viability under drug (MKN-45 [7]): 4.45 ± 0.12%; % viability under drug (NCI-H441 [8]): 24.2 ± 3.6%; % viability in DMSO (EVSA-T [9]): 71.9 ± 2.7%; % viability in DMSO (M14 [10]): 85.4 ± 3.8%; % viability in DMSO (HCC-1954 [11]): 110 ± 9.3%; % viability in DMSO (NCI-H596 [12]): 98.8 ± 8.3%; % viability in DMSO (COLO-205 [13]): 95 ± 6.9%; % viability in DMSO (SK-BR-3 [14]): 80.3 ± 4.8%; % viability in DMSO (MKN-45 [15]): 156 ± 2.2%; % viability in DMSO (NCI-H441 [16]): 106 ± 7.8%
AAAAGUACUUGCGGAUUUUGCU	-3.1	% viability under drug (EVSA-T [1]): 1.66 ± 0.013%; % viability under drug (M14 [2]): 22.8 ± 0.71%; % viability under drug (HCC-1954 [3]): 4.02 ± 0.49%; % viability under drug (NCI-H596 [4]): 2.53 ± 0.066%; % viability under drug (COLO-205 [5]): 49.9 ± 1.1%; % viability under drug (SK-BR-3 [6]): 49.8 ± 2.7%; % viability under drug (MKN-45 [7]): 4.2 ± 0.41%; % viability under drug (NCI-H441 [8]): 11.3 ± 2.9%; % viability in DMSO (EVSA-T [9]): 64.63 ± 0.49%; % viability in DMSO (M14 [10]): 99.3 ± 19%; % viability in DMSO (HCC-1954 [11]): 100 ± 4.8%; % viability in DMSO (NCI-H596 [12]): 89.1 ± 8.1%; % viability in DMSO (COLO-205 [13]): 101 ± 4.5%; % viability in DMSO (SK-BR-3 [14]): 161 ± 7.2%; % viability in DMSO (MKN-45 [15]): 142 ± 17%; % viability in DMSO (NCI-H441 [16]): 67.7 ± 7.8%
AACGCCAUUAUCACACUAAAUA	0.733	% viability under drug (EVSA-T [1]): 0.459 ± 0.079%; % viability under drug (M14 [2]): 12.8 ± 0.75%; % viability under drug (HCC-1954 [3]): 2.25 ± 0.44%; % viability under drug (NCI-H596 [4]): 0.97 ± 0.026%; % viability under drug (COLO-205 [5]): 43 ± 1.6%; % viability under drug (SK-BR-3 [6]): 11.5 ± 1.4%; % viability under drug (MKN-45 [7]): 1.35 ± 0.4%; % viability under drug (NCI-H441 [8]): 10.2 ± 2.8%; % viability in DMSO (EVSA-T [9]): 23.6 ± 3.1%; % viability in DMSO (M14 [10]): 73.5 ± 3.2%; % viability in DMSO (HCC-1954 [11]): 81.2 ± 2.9%; % viability in DMSO (NCI-H596 [12]): 62.43 ± 0.46%; % viability in DMSO (COLO-205 [13]): 106 ± 2%; % viability in DMSO (SK-BR-3 [14]): 22.3 ± 5.5%; % viability in DMSO (MKN-45 [15]): 27.1 ± 3.8%; % viability in DMSO (NCI-H441 [16]): 13.2 ± 1.1%
UAGAUAAAAUAUUGGUACCUG	-1.41	
UAGCAGCACAGAAAUAUUGGC	-1.13	
UAGCAGCACGUAAAUAUUGGCG	-2.26	
UAGCAGCGGGAACAGUUCUGCAG	-3.68	
UAGCUUAUCAGACUGAUGUUGA	-2.58	
UAGGACACAUGGUCUACUUCU	-1.02	
UAGGCAGUGUCAUUAGCUGAUUG	-1.83	
UAGGUUAUCCGUGUUGCCUUCG	-2.37	
UAGUACCAGUACCUUGUGUUCA	-4.15	
UAGUGCAAUAUUGCUUAUAGGGU	-3.19	
UAUGGCUUUUUAUUCCUAUGUGA	-1.4	
UAUGUGCCUUUGGACUACAUCG	-3.93	
UCACAAUGCUGACACUCAAACUGCUGAC	-1.47	
UCACUCCUCUCCUCCCGUCUU	-4.11	
UCCAGCAUCAGUGAUUUUGUUG	-2.81	
UCCCUGUCCUCCAGGAGCUCACG	-1.84	
UCCCUGUUCGGGCGCCA	-3.09	
UCCUGUACUGAGCUGCCCCGAG	-0.848	
UCGAGGAGCUCACAGUCUAGU	-0.737	

Sequence	cell count fold change with erlotinib (PC9)	other results
UCGGAUCCGUCUGAGCUUGGCU	0.402	
UCUCUGGGCCUGUGUCUUAGGC	0.808	
UGACAACUAUGGAUGAGCUCU	-1.88	
UGAGAACCACGUCUGCUCUGAG	-1.74	
UGAGACCUCUGGGUUCUGAGCU	-0.719	
UGAGAUGAAGCACUGUAGCUC	-1.52	
UGAGCCCCUGUGCCGCCCCCAG	-1.44	
UGAGCCCUGUCCUCCCGCAG	-3.68	
UGAGCGCCUCGACGACAGAGCCG	-1.23	
UGAGGGGCAGAGAGCGAGACUUU	-0.476	
UGAGUGCCGGUGCCUGCCCUG	-2.45	
UGCCUGUCUACACUUGCUGUGC	-1.78	
UGCGGGGCUAGGGCUAACAGCA	0.647	
UGCUUCCUUUCAGAGGGU	-3.13	
UGGAAGACUAGUGAUUUUGUUGU	-2.71	
UGGAAUGUAAGGAAGUGUGUGG	-0.89	
UGGAGAGAAAGGCAGUUCCUGA	-1.98	
UGGAGGAGAAGGAAGGUGAUG	0.943	
UGGAUUUCUUUGUGAAUCACCA	-4.07	
UGGGCGUAUCUGUAUGCUA	-0.274	
UGGGUCUUUGCGGGCGAGAUGA	-0.809	
UGGUGCGGAGAGGGCCCACAGUG	-1.34	
UGGUUGUAGUCCGUGCGAGAAUA	1.81	

Sequence	cell count fold change with erlotinib (PC9)	other results
UGGUUUACCGUCCCACAUACAU	0.24	
UGUAAACAUCCUACACUCUCAGC	0.35	
UGUAGUGUUUCCUACUUUAUGGA	-4.91	
UGUCUUGCAGGCCGUCAUGCA	-4.12	
UGUGCGCAGGGAGACCUCUCCC	-1.77	
UGUUUUGAUAACAGUAAUGU	-1.27	
UUACAGUUGUUCAACCAGUUACU	-2.68	
UUAUGGUUUGCCUGGGACUGAG	-0.886	
UUCAACGGGUAUUUAUUGAGCA	-3.32	
UUCCUAUGCAUAUACUUCUUUG	-1.18	
UUCUCAAGGAGGUGUCGUUUAU	-1.83	
UUCUCCAAAAGAAAGCACUUUCUG	-1.65	
UUCUCGAGGAAAGAAGCACUUUC	-1.6	
UUGCAGCUGCCUGGGAGUGACUUC	-2.6	
UUGCAUAUGUAGGAUGUCCCAU	-1.06	
UUGGGAUCAUUUUGCAUCCAUA	0.519	
UUGUACAUGGUAGGCUUUCAUU	-3.02	
UUGUGCUUGAUCUAACCAUGU	-1.88	
UUGUGUCAAUAUGCGAUGAUGU	-3.39	
UUUCCAUAGGUGAUGAGUCAC	-0.48	
UUUGUGACCUGGUCCACUAACC	-2.85	
UUUGUUCGUUCGGCUCGCGUGA	-4.05	
UUUUGCACCUUUUGGAGUGAA	-3.02	
